{
  "source": "patent US20030180355A1",
  "about": "“Combination therapy for hypertension” (priority 2001, published 2003)",
  "key": {"[1]": {"system": "conscious renal hypertensive dogs", "experiment": "Lercanidipine and enalapril in renal hypertensive dogs (two-kidney, two clip)", "type": "in vivo, beagle dogs", "description": "Male beagle dogs, 10-12 months old and weighing between 10-11 kg, were used. All dogs were trained for several weeks, to comply unstressfully to the test environment. Chronic sustained hypertension was induced in 4 dogs by bilateral renal artery constriction, according to the Goldblatt method “two-kidney, two clip hypertension”. Briefly, under sodium pentobarbital anaesthesia (35 mg/kg i.v.) during two different surgical interventions 15 days apart from each other, in sterile conditions, both renal arteries were clipped with original renal silver clips and narrowed by about 60-70%. After two months from the last intervention, an experimental renal hypertension was produced and the animals were used for the implantation of catheter.\nUnder sodium pentobarbital anaesthesia (35 mg/kg i.v.), in sterile conditions, the dogs were catheterized by inserting a sensor tipped catheter (Mikro-Tip) into the ascending aorta through the right femoral artery. The catheter was subcutaneously exteriorized at the back of the neck.\nAfter a week recovery time from surgery, the animals were placed in a dog restrained unit, composed by a frame and a dog sling hammock, and connected to the pressure transducers in order to monitor the arterial blood pressure.\nAll the animals were alternatively treated with vehicle, lercanidipine, enalapril and the combination of lercanidipine and enalapril. The drugs were administered by oral gavage in a volume of 1 ml/kg at the following dosages:\n(2) lercanidipine (0.5 mg/kg)\n(4) lercanidipine […] enalapril (0.5 mg/kg +3 mg/kg)\nBlood pressure (systolic and diastolic) was monitored up to 6 h after the administration. Statistical analysis was performed from time 0 to time 360 min. To evaluate the statistical differences among the treatments, data were analyzed using a three-way ANOVA with repeated measures on factor time and pre-planned multiple comparisons. Statistical analysis was performed by means of GLM (general linear model procedure) with SAS software version 6.12."}, "[2]": {"system": "isolated rat aorta", "conditions": "in vitro; even after the drug has been removed for 6 hours; cited from earlier work"}, "[3]": {"conditions": "enalapril 3 mg/kg oral, 120 min"}, "[4]": {"conditions": "enalapril 3 mg/kg oral, 150 min"}, "[5]": {"conditions": "enalapril 3 mg/kg oral, 180 min"}, "[6]": {"conditions": "enalapril 3 mg/kg oral, 240 min"}, "[7]": {"conditions": "enalapril 3 mg/kg oral, 360 min"}, "[8]": {"conditions": "lercanidipine 0.5 mg/kg oral, 15 min"}, "[9]": {"conditions": "lercanidipine 0.5 mg/kg oral, 30 min"}, "[10]": {"conditions": "lercanidipine 0.5 mg/kg oral, 45 min"}, "[11]": {"conditions": "lercanidipine 0.5 mg/kg oral, 60 min"}, "[12]": {"conditions": "lercanidipine 0.5 mg/kg oral, 90 min"}, "[13]": {"conditions": "lercanidipine 0.5 mg/kg oral, 120 min"}, "[14]": {"conditions": "lercanidipine 0.5 mg/kg oral, 150 min"}, "[15]": {"conditions": "lercanidipine 0.5 mg/kg oral, 180 min"}, "[16]": {"conditions": "lercanidipine 0.5 mg/kg oral, 240 min"}, "[17]": {"conditions": "lercanidipine 0.5 mg/kg oral, 360 min"}, "[18]": {"conditions": "lercanidipine 0.5 mg/kg oral, Basal"}},
  "data": [
    {"smiles": "CCOC(=O)[C@H](CCc1ccccc1)N[C@@H](C)C(=O)N1CCC[C@H]1C(=O)O", "note": "[enalapril, (S)-1-[N-1-(ethoxycarbonyl)-3-phenylpropyl]-L-alanyl-L-proline]", "values": [
      {"measurement": "DBP (diastolic blood pressure)", "setting": "[1]; enalapril 3 mg/kg oral, 15 min", "value": "114.5 ± 4.9", "unit": "mmHg"},
      {"measurement": "SBP (systolic blood pressure)", "setting": "[1]; enalapril 3 mg/kg oral, 15 min", "value": "162.8 ± 4.8", "unit": "mmHg"},
      {"measurement": "DBP (diastolic blood pressure)", "setting": "[1]; enalapril 3 mg/kg oral, 30 min", "value": "114.0 ± 4.7", "unit": "mmHg"},
      {"measurement": "SBP (systolic blood pressure)", "setting": "[1]; enalapril 3 mg/kg oral, 30 min", "value": "160.3 ± 4.1", "unit": "mmHg"},
      {"measurement": "DBP (diastolic blood pressure)", "setting": "[1]; enalapril 3 mg/kg oral, 45 min", "value": "110.3 ± 4.7", "unit": "mmHg"},
      {"measurement": "SBP (systolic blood pressure)", "setting": "[1]; enalapril 3 mg/kg oral, 45 min", "value": "158.0 ± 5.6", "unit": "mmHg"},
      {"measurement": "DBP (diastolic blood pressure)", "setting": "[1]; enalapril 3 mg/kg oral, 60 min", "value": "105.3 ± 5.6", "unit": "a mmHg"},
      {"measurement": "SBP (systolic blood pressure)", "setting": "[1]; enalapril 3 mg/kg oral, 60 min", "value": "158.0 ± 6.4", "unit": "mmHg"},
      {"measurement": "DBP (diastolic blood pressure)", "setting": "[1]; enalapril 3 mg/kg oral, 90 min", "value": "107.5 ± 3.2", "unit": "mmHg"},
      {"measurement": "SBP (systolic blood pressure)", "setting": "[1]; enalapril 3 mg/kg oral, 90 min", "value": "159.0 ± 5.8", "unit": "mmHg"},
      {"measurement": "DBP (diastolic blood pressure)", "setting": "[1]; [3]", "value": "105.0 ± 5.3", "unit": "b mmHg"},
      {"measurement": "SBP (systolic blood pressure)", "setting": "[1]; [3]", "value": "153.5 ± 7.5", "unit": "mmHg"},
      {"measurement": "DBP (diastolic blood pressure)", "setting": "[1]; [4]", "value": "108.3 ± 4.5", "unit": "a mmHg"},
      {"measurement": "SBP (systolic blood pressure)", "setting": "[1]; [4]", "value": "158.5 ± 5.7", "unit": "mmHg"},
      {"measurement": "DBP (diastolic blood pressure)", "setting": "[1]; [5]", "value": "110.5 ± 3.6", "unit": "mmHg"},
      {"measurement": "SBP (systolic blood pressure)", "setting": "[1]; [5]", "value": "158.8 ± 5.5", "unit": "mmHg"},
      {"measurement": "DBP (diastolic blood pressure)", "setting": "[1]; [6]", "value": "116.0 ± 3.3", "unit": "mmHg"},
      {"measurement": "SBP (systolic blood pressure)", "setting": "[1]; [6]", "value": "161.3 ± 7.2", "unit": "mmHg"},
      {"measurement": "DBP (diastolic blood pressure)", "setting": "[1]; [7]", "value": "111.8 ± 4.3", "unit": "mmHg"},
      {"measurement": "SBP (systolic blood pressure)", "setting": "[1]; [7]", "value": "158.8 ± 5.9", "unit": "mmHg"},
      {"measurement": "DBP (diastolic blood pressure)", "setting": "[1]; enalapril 3 mg/kg oral, Basal", "value": "120.0 ± 4.2", "unit": "mmHg"},
      {"measurement": "SBP (systolic blood pressure)", "setting": "[1]; enalapril 3 mg/kg oral, Basal", "value": "164.8 ± 3.5", "unit": "mmHg"}
    ]},
    {"smiles": "COC(=O)C1=C(C)NC(C)=C(C(=O)OC(C)(C)CN(C)CCC(c2ccccc2)c2ccccc2)C1c1cccc([N+](=O)[O-])c1", "note": "(stereo not drawn) [lercanidipine, methyl 1,1,N-trimethyl-N-(3,3-diphenylpropyl)-2-aminoethyl 1,4-dihydro-2,6-dimethyl-4-(3-nitrophenyl)pyridine-3,5-dicarboxylate]", "values": [
      {"measurement": "isolated rat aorta response to high K+", "setting": "[2]", "value": "attenuated"},
      {"measurement": "DBP (diastolic blood pressure)", "setting": "[1]; [8]", "value": "107.0 ± 5.8", "unit": "mmHg"},
      {"measurement": "SBP (systolic blood pressure)", "setting": "[1]; [8]", "value": "152.5 ± 6.6", "unit": "mmHg"},
      {"measurement": "DBP (diastolic blood pressure)", "setting": "[1]; [9]", "value": "95.3 ± 3.6", "unit": "c mmHg"},
      {"measurement": "SBP (systolic blood pressure)", "setting": "[1]; [9]", "value": "142.5 ± 4.8", "unit": "b mmHg"},
      {"measurement": "DBP (diastolic blood pressure)", "setting": "[1]; [10]", "value": "89.0 ± 4.8", "unit": "c mmHg"},
      {"measurement": "SBP (systolic blood pressure)", "setting": "[1]; [10]", "value": "138.3 ± 5.1", "unit": "c mmHg"},
      {"measurement": "DBP (diastolic blood pressure)", "setting": "[1]; [11]", "value": "87.5 ± 6.3", "unit": "c mmHg"},
      {"measurement": "SBP (systolic blood pressure)", "setting": "[1]; [11]", "value": "142.3 ± 7.4", "unit": "a mmHg"},
      {"measurement": "DBP (diastolic blood pressure)", "setting": "[1]; [12]", "value": "87.3 ± 5.3", "unit": "c mmHg"},
      {"measurement": "SBP (systolic blood pressure)", "setting": "[1]; [12]", "value": "138.3 ± 5.7", "unit": "c mmHg"},
      {"measurement": "DBP (diastolic blood pressure)", "setting": "[1]; [13]", "value": "93.0 ± 5.6", "unit": "c mmHg"},
      {"measurement": "SBP (systolic blood pressure)", "setting": "[1]; [13]", "value": "140.5 ± 5.9", "unit": "b mmHg"},
      {"measurement": "DBP (diastolic blood pressure)", "setting": "[1]; [14]", "value": "94.0 ± 7.2", "unit": "c mmHg"},
      {"measurement": "SBP (systolic blood pressure)", "setting": "[1]; [14]", "value": "139.3 ± 10.1", "unit": "c mmHg"},
      {"measurement": "DBP (diastolic blood pressure)", "setting": "[1]; [15]", "value": "96.8 ± 5.1", "unit": "c mmHg"},
      {"measurement": "SBP (systolic blood pressure)", "setting": "[1]; [15]", "value": "141.0 ± 7.2", "unit": "b mmHg"},
      {"measurement": "DBP (diastolic blood pressure)", "setting": "[1]; [16]", "value": "104.0 ± 5.0", "unit": "a mmHg"},
      {"measurement": "SBP (systolic blood pressure)", "setting": "[1]; [16]", "value": "144.8 ± 6.8", "unit": "a mmHg"},
      {"measurement": "DBP (diastolic blood pressure)", "setting": "[1]; [17]", "value": "108.0 ± 3.5", "unit": "mmHg"},
      {"measurement": "SBP (systolic blood pressure)", "setting": "[1]; [17]", "value": "150.0 ± 6.8", "unit": "mmHg"},
      {"measurement": "DBP (diastolic blood pressure)", "setting": "[1]; [18]", "value": "117.5 ± 5.2", "unit": "mmHg"},
      {"measurement": "SBP (systolic blood pressure)", "setting": "[1]; [18]", "value": "161.3 ± 3.8", "unit": "mmHg"}
    ]}
  ]
}
